A short description of series [1]: Metabolic stability using Human Liver Microsomes. The class given is in vitro ADME. The note with it: for % QH (Well stirred model): NADPH, 0-60 min. Here is the method: 1 mM stock solution of test compound was prepared in DMSO and diluted with Acetonitrile:Water (1:1) to get a 100 μM working concentration. 100 mL of Milli Q water was added to K2HPO4 (1.398 g) and KH2PO4 (0.27 g) to get final pH 7.4 solution of potassium phosphate buffer. […] The above mixture was pre incubated for 15 minutes at 37° C. After pre incubation, 32.5 μL of the mixture was added to 17.5 μL of buffer, this was incubated for 60 minutes at 37° C. [60 min Without Cofactor (NADPH)]. 16.25 μL of the pre incubated mixture and 8.75 μL of cofactor was added to 150 μL of acetonitrile containing internal standard [0 min Sample]. 62 μL of cofactor was added to remaining pre incubation mixture [Incubation mixture]. 25 μL of incubation mixture at 0, 5, 15, 30, 60 min and 60 min without cofactor were precipitated with 150 μL of acetonitrile containing internal standard, vortexed and centrifuged at 4000 rpm at 4° C. for 20 minutes. 120 μL of supernatant was diluted with 120 μL of water and analyzed by LC-MS/MS [sample preparation].
(In general: Liver microsomes are a subcellular fraction often used to study metabolism.)

The test system of the next series is ATGL. As to the kind of experiment: Immunoprecipitation assay of ATGL ubiquitination in myc-ATGL HepG2 cells. The class given is cell-based. As to conditions: 5 μM, 24 hours, MG-132, poly ubiquitin smear. Here is the method: To this end, an immunoprecipitation assay was performed wherein HepG2 cells overexpressing myc-ATGL were transfected with HA-Ubiquitin and treated with 5 μM of the compounds 9, 10, 107, 215, 219 and 238. MG-132, a proteasomal inhibitor, was added 4 hours before harvesting the cells. Immune complexes were pulled down with anti-myc antibody and immunoblot was done using anti-HA antibody. The resultant smears on the blot reflect the ubiquitination status of ATGL.
For checking the change in the ubiquitination status of ATGL on compound treatment, Myc-ATGL expressing HepG2 cells (ATGL overexpressing cell line) was transfected with 2 μg of a plasmid harboring the HA tagged ubiquitin gene using Lipofectamine 2000 reagent (Invitrogen) in OptiMEM media (HiMedia). Fresh DMEM complete media was added after 8-10 hours of transfection. After roughly 24 hours of transfection, 5 μM of the compounds 9, 10 and 107 was added and cells were harvested post 24 hours of treatment. 4 hours prior to cell harvesting, 10 μM of proteasomal inhibitor MG132 (Calbiochem, Merck Millipore) was added to the cells. Proteins were isolated from the cells and protein concentration was estimated as described previously. 30 μl of PureProteome Protein A/G Mix Magnetic Beads (Merck Millipore) was taken in a 1.5 ml microcentrifuge tube, placed in a Magna Rack (Merck Millipore) and allowed to adhere to the side of the tube. 200 μg of protein was used for immunoprecipitation reaction in a reaction volume of 1 ml. 2 μl of anti-Myc primary antibody (Cell Signaling Technology) was added and the tube was incubated overnight at 4° C. in a rotary shaker. The next day, the tube was placed back in the Magna Rack and the beads were allowed to attach to the tube. To remove non-specific and unattached reactants, 1×PBS and 0.1% Triton-X was used for washing. 2× loading dye and Lysis Buffer was added and heated at 95° C. for 10 minutes to allow the immune complex to dislodge from the magnetic beads. Western Blot was performed subsequently as described before with anti-HA primary antibody for immunoblotting (Cell Signaling Technology). The activity trends of the synthesized compounds are disclosed in Table-5.

Another series relates to HepG2 cells. As to the kind of experiment: Confocal microscopy: lipid droplets in oleate induced HepG2 cells. The arrangement: key to Reduction in Lipid Droplets: + = slight or in insignificant; ++ = Moderate; +++ and ++++ = active; +++ and ++++ = active; +++++ = very active. The note with it: for Number of lipid droplets: HepG2 cells, 250 μM oleate induction; for Reduction in Lipid Droplets: oleate induced HepG2 cells, score. The class given is cell-based. The method, boiled down:
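HepG2 cells were loaded with 250 μM oleate and given compound in DMSO (10 μM screen; 10 nM–5 μM dose series) for 24 h; BSA as negative control. Lipid droplets stained with BODIPY/Hoechst, imaged confocally; mean droplets per cell counted over ~20 cells versus oleate-only cells.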

“Also recorded” adds a separate entry of the source.

`COCCn1c(-c2ccncc2)nc2ccc(NC(=O)Nc3cccc(C(C)=O)c3)cc2c1=O` [Compound 219, 1-(3-acetylphenyl)-3-(3-(2-methoxyethyl)-4-oxo-2-(pyridin-4-yl)-3,4-dihydroquinazolin-6-yl)urea]: in series [1], the “Clearance class from % QH” value is given as “lower clearance” and the “% QH (Well stirred model)” value is 24.5%. Moreover, the “ATGL ubiquitination in HepG2 cells” value with ATGL is “no such effects; also recorded: no subtle reduction in the ubiquitination smear”.

As to `COCCn1cnc2ccc(NC(=O)Nc3cccc(C(C)=O)c3)cc2c1=O` [Compound 9, 1-(3-acetylphenyl)-3-(3-(2-methoxyethyl)-4-oxo-3,4-dihydroquinazolin-6-yl)urea], in series [1], the “Clearance class from % QH” value is recorded as “lower clearance” and the “% QH (Well stirred model)” value came to 21.26%. Further, in the series on HepG2 cells, the “Number of lipid droplets” value was “decrease in the number of lipid droplets” and the “Reduction in Lipid Droplets” value is listed as “++++”. In the series on ATGL, the “ATGL ubiquitination in HepG2 cells” value is “effective in reducing the ATGL ubiquitination by COP1; also recorded: subtle reduction in the ubiquitination smear”.

Take `COCCn1c(-c2cccnc2)nc2ccc(NC(=O)Nc3cccc(C(C)=O)c3)cc2c1=O` [Compound 215, 1-(3-acetylphenyl)-3-(3-(2-methoxyethyl)-4-oxo-2-(pyridin-3-yl)-3,4-dihydroquinazolin-6-yl)urea]: in series [1], the “Clearance class from % QH” value is recorded as “lower clearance” and the “% QH (Well stirred model)” value came out at 15.5%. For the same compound, the “ATGL ubiquitination in HepG2 cells” value with ATGL is “no such effects; also recorded: no subtle reduction in the ubiquitination smear”.

As to `CC(=O)c1cccc(NC(=O)Nc2ccc3ncn(CCCN4CCOCC4)c(=O)c3c2)c1` [Compound 139, 1-(3-acetylphenyl)-3-(3-(3-morpholinopropyl)-4-oxo-3,4-dihydroquinazolin-6-yl)urea], in series [1], the “Clearance class from % QH” value was “medium clearance” and the “% QH (Well stirred model)” value came out at 35.3%. In the series with HepG2 cells, the “Number of lipid droplets” value is listed as “reduction in lipid droplets” and the “Reduction in Lipid Droplets” value is “+++”.

In the case of `COCCn1c(CN2CCCCC2)nc2ccc(NC(=O)Nc3cccc(C(C)=O)c3)cc2c1=O` [Compound 238, 1-(3-acetylphenyl)-3-(3-(2-methoxyethyl)-4-oxo-2-(piperidin-1-ylmethyl)-3,4-dihydroquinazolin-6-yl)urea], in series [1], the “Clearance class from % QH” value is reported as “higher clearance” and the “% QH (Well stirred model)” value turned out to be 83.5%. Also, the “ATGL ubiquitination in HepG2 cells” value in the series with ATGL is “decrease ATGL ubiquitination by COP1; also recorded: decreased”.

`COCCn1c(C)nc2ccc(NC(=O)Nc3cccc(C(C)=O)c3)cc2c1=O` [Compound 107, 1-(3-acetylphenyl)-3-(3-(2-methoxyethyl)-2-methyl-4-oxo-3,4-dihydroquinazolin-6-yl)urea]: in the series with HepG2 cells, the “Reduction in Lipid Droplets” value is “++++”. In the series on ATGL, the “ATGL ubiquitination in HepG2 cells” value was “effective in reducing the ATGL ubiquitination by COP1; also recorded: capability of subtly reducing ubiquitination of ATGL”.

The record behind these values is patent publication US12528777B2, “Quinazolinones derivatives for treatment of non-alcoholic fatty liver disease, preparation and use thereof” (Council of Scientific and Industrial Research, priority 2020, dated 2026).
